Experimental data as given in publication PMC11305387, “AlphaFold accelerated discovery of psychotropic agonists targeting the trace amine–associated receptor 1” (Science Advances, 2024).

Legend:
hTAAR1 = target: T1, hTAAR1 (Homo sapiens, UniProt Q96RJ0); test: cAMP accumulation assay (GloSensor-22F); type: cell-based
T1 construct: expressed in transfected cells; host or cells: Expi293F
T1 sequence (Q96RJ0 1-339): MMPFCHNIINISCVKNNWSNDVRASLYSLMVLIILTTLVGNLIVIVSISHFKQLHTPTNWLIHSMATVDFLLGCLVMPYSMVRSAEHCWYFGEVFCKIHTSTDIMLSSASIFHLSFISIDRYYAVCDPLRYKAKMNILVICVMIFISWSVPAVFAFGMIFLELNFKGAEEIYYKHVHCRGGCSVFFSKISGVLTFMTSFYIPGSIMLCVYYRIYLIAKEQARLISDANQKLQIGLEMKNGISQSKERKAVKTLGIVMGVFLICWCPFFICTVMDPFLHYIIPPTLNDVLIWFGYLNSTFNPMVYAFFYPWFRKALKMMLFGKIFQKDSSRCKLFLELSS
Protocol: cAMP accumulation was assessed using a previously described system with some modifications ([45]). hTAAR1 and GloSensor-22F were transected with a 1:1 gene dose (1 μg/ml) in Expi293F cells for 48 hours. Cells were then resuspended in assay buffer [Hanks’ balanced salt solution (HBSS), 10 mM Hepes, 2 mM […] (Promega), and 300 μM 3-isobutyl-1-methylxanthine (Sigma-Aldrich)] and seeded with 25,000 cells per well to a white 384-well plate (CulturPlate, PerkinElmer) and incubated for 1 hour in the dark at RT. After a baseline read, compounds were added, and the plate was read for a further 1 hour (SPARK 10 M, Tecan) with 10-min intervals. The final read at 1 hour was used for analysis.

WT and TAAR1-KO mice = test: Open-field test: baseline locomotion and MK-801-induced hyperlocomotion; type: in vivo; settings: compound 65 1 mg/kg, risperidone 0.03 mg/kg
Protocol: To assess the influence of the compound on baseline locomotion and MK-801–induced hyperlocomotion, mice were subjected to open-field testing on four occasions separated by 96 hours. The first occasion was a mock test session where all mice were injected with vehicle only, serving to reduce the effect of novelty on subsequent sessions. The next three sessions were true test sessions with pretreatment of either compound 65, risperidone, or vehicle, followed by MK-801. The R package agricolae was used to generate a randomized block design, randomizing treatment order across sex, genotype, and test session. After injection with either compound 65 (1 mg/kg), risperidone (0.03 mg/kg), or vehicle intraperitoneally, mice were immediately placed in the open field and recorded for 15 min. They were then injected with MK-801 (0.35 mg/kg intraperitoneal) and recorded again for 60 min. The OFT arena measured 46 cm by 46 cm with gray floor and walls. The brightness at the center of each arena was 30 to 50 lux. The arenas were cleaned with 70% ethanol between each animal. Video from a camera mounted in the ceiling was analyzed using EthoVision XT11.5 (Noldus) software.

[1] = Caco-2 cells permeability assay; type: in vitro ADME; settings: human
Protocol: Caco-2 cell monolayers (passages: 94 to 105) were grown on permeable filter support and used for transport study on day 21 after seeding. Before the experiment, a drug solution of 10 μM was prepared and warmed to 37°C. The Caco-2 filters were washed with pre-warmed HBSS before the experiment, and, thereafter, the experiment was started by applying the donor solution on the apical or basolateral side. The transport experiments were carried out at pH 7.4 in both the apical and basolateral chamber. The experiments were performed at 37°C and with a stirring rate of 500 rpm. The receiver compartment was sampled at 15, 30, and 60 min, and, at 60 min, also a final sample from the donor chamber was taken to calculate the mass balance of the compound. The samples (100 μl) were transferred to a 96-well plate containing 100 μl of methanol, and Warfarin as internal standard and was sealed until LC-MS/MS analysis.

CC1=C(c2ccco2)CNCC1 [Compound 65]
EC50 (hTAAR1): 0.398 nM
effect on locomotion (WT and TAAR1-KO mice; TAAR1-KO mice): did not exhibit such an effect
effect on MK-801–induced hyperlocomotion (WT and TAAR1-KO mice; WT mice, MK-801 0.35 mg/kg): significant decrease
effect on baseline locomotion (WT and TAAR1-KO mice; WT mice, versus vehicle): trend toward decreased locomotion
efflux ratio at 60 min, 10 μM [1]: 2.2
Papp A→B at 60 min, 10 μM ([1]; apical-to-basal, 10 μM, pH 7.4): 77 ×10⁻⁶ cm/s
Papp B→A at 60 min, 10 μM ([1]; basal-to-apical, 10 μM, pH 7.4): 168 ×10⁻⁶ cm/s
